Source: EPA's ToxValDB 9.5 (doi:10.2903/j.efsa.2010.1669)
Converted amounts (≈) assume the structure as drawn.

Assays:
Aphidius rhopalosiphi = test: LR50; higher = less toxic; settings: not reported; mortality
Canidae = settings: oral, Dog Other, organ weight
Daphnia magna = settings: chronic/long-term; duration: 21 days; reproduction
Tagia sp. = settings: acute; duration: 14 days; mortality
Rattus norvegicus = settings: for NOAEL: body weight
Apis mellifera = settings: acute; duration: 48 hours; dermal; mortality
Oryctolagus sp. = settings: developmental; development
Colinus virginianus = settings: for LD50: acute, oral, mortality

For `CCCC(=NOCC)C1=C(O)CC(C2CCCSC2)CC1=O` (stereo unspecified) [Cycloxydim], the LR50 (Aphidius rhopalosiphi) was 90.2 g/ha, the NOAEL (Canidae; chronic, duration: 1 years) was 10 mg/kg-day and the NOAEL (Canidae; subchronic, duration: 3 months) was 10 mg/kg-day. For the same compound, the LC50 (Oncorhynchus mykiss; acute, duration: 96 hours, mortality) was 220 µg/mL (≈ 676 µM), the NOEC (Oncorhynchus mykiss; chronic/long-term, duration: 28 days, growth) was 21.5 mg/L and the NOEC (Daphnia magna) was 62.5 mg/L. For the same compound, the LC50 (Tagia sp.) was > 1000 mg/kg, the LD50 (Rattus norvegicus; acute, oral, mortality) was 3830 mg/kg-day and the NOAEL (Rattus norvegicus; chronic, duration: 18 months) was 7 mg/kg-day. For the same compound, the NOAEL (Rattus norvegicus; chronic, duration: 24 months) was 7 mg/kg-day, the NOAEL (Rattus norvegicus; reproduction developmental) was 9.7 mg/kg-day and the LD50 (Apis mellifera) was > 100 µg/piece. For the same compound, the NOAEL (Oryctolagus sp.) was 200 mg/kg-day, the LD50 (Colinus virginianus; diet) was 497 mg/kg-day and the LD50 (Colinus virginianus) was > 2000 mg/kg-day. The NOEC (Colinus virginianus; reproduction developmental) was 65.4 mg/kg-day.
